Results: patent US20260157964A1, “LIPOPHILIC STATIN COMPOSITION WITH IMPROVED SOLUBILITY AND PERMEABILITY AND USES THEREOF” (KOREA INSTITUTE OF SCIENCE AND TECHNOLOGY, priority 2021, published 2026)
Converted amounts (≈) assume the structure as drawn.

Experiments:
[1] = test system: CT26 cells; assay: In vitro cytotoxicity in CT26 cells (CCK-8); type: cell-based, mouse
Protocol: Specifically, 5×10^3 CT26 cells were inoculated on 100 μL of DMEM and a Roswell Park Memorial Institute (RPMI) medium, respectively supplemented with 10% (v/v) FBS and 1% penicillin/streptomycin. […] DL and CD were also treated in the same volume and each of the concentrations. After 24 hours of the culturing, 10 μL of a WST-8 solution [2-2-methoxy-4-nitrophenyl)-3-(4-nitrophenyl)-5-(2,4-disulfophenyl)-2H-tetrazolium monosodium salt] was diluted with 100 μL of each medium, followed by culturing for 2 hours. Then, absorbance was measured using a microplate reader (PerkinElmer multimode plate reader) at 450 nm. Percentages of viable cells are shown by comparing the number of treated cells with that of untreated cells.

[2] = in vivo; conditions: SD, rat
[3] = Pharmacokinetics of OP (platinum) in rats, repeated oral dosing; type: in vivo, SD rats
Protocol: After SD rats were orally administered with various concentrations of ODSF repeatedly, the rats were divided into 5 groups (4 rats per group) to evaluate pharmacokinetic properties of OP. The rats were orally administered with a daily dose of 400 μL of OP (10) (OP dispersed in water, 10 mg/kg) or ODSF (2.5), ODSF (10), and ODSF (20) (containing 2.5 mg/kg, 10 mg/kg, and 20 mg/kg OP, respectively), for 14 days. […] Plasma concentrations of OP were measured based on the platinum concentration, after decomposition with nitric acid at 100° C., by inductively coupled plasma-mass spectroscopy (ICP-MS) at a high frequency power of 1450 W, at a coolant flow rate of 12 L/min, at an axillary flow rate of 2.3 L/min, and at a nebulizer flow rate of 0.89 L/min.
Plasma profiles of not only OP in water (10 mg/kg) [OP (10)] but also ODSF including 2.5 mg/kg, 10 mg/kg, and 20 mg/kg OP [ODSF (2.5), ODSF (10), and ODSF (20), respectively] were identified after 2-week continuous metronomic administration in comparison with a single IV bolus dose of 5 mg/kg OP [OP-IV (5)] administered on day 1 and day 14.

[4] = oral once a day 14 days, 10 mg/kg OP

CCC(C)(C)C(=O)O[C@H]1C[C@@H](C)C=C2C=C[C@H](C)[C@H](CC[C@@H]3C[C@@H](O)CC(=O)O3)[C@H]21 [SIMVA, simvastatin]
IC50 ([1]; Mus musculus, CT26, 24 h, read-out: IC50 (concentration of a drug required to kill 50% of cells)): 183 µg/mL (≈ 437 µM) | half-life ([2]; in vivo, po, 50 mg/kg): 1.6 h | Tmax ([2]; plasma, po, 50 mg/kg): 1.5 h

CCC(C)(C)C(=O)O[C@H]1C[C@@H](C)C=C2C=C[C@H](C)[C@H](CC[C@@H]3C[C@@H](O)CC(=O)O3)[C@H]21 [SIMVA in DMSO (50), simvastatin]
half-life ([2]; plasma, po, 50 mg/kg): 1.22 h

CCC(C)(C)C(=O)O[C@H]1C[C@@H](C)C=C2C=C[C@H](C)[C@H](CC[C@@H]3C[C@@H](O)CC(=O)O3)[C@H]21 [SIMVA-IV (10), simvastatin]
half-life ([2]; plasma, iv, 10 mg/kg): 0.39 h

CCC(C)(C)C(=O)O[C@H]1C[C@@H](C)C=C2C=C[C@H](C)[C@H](CC[C@@H]3C[C@@H](O)CC(=O)O3)[C@H]21 [SIMVA-IP (10), simvastatin]
Tmax ([2]; plasma, ip, 10 mg/kg): 0.5 h | half-life ([2]; plasma, ip, 10 mg/kg): 0.54 h

O=C1[O][Pt]2([NH][C@@H]3CCCC[C@H]3[NH]2)[O]C1=O [OP, oxaliplatin]
AUCinf, on day 14 ([3]; IV, 5 mg/kg OP): 8120 ± 2470 ng·h/mL | AUClast, on day 14 ([3]; IV, 5 mg/kg OP): 5460 ± 1460 ng·h/mL | Cmax, on day 14 ([3]; IV, 5 mg/kg OP): 1060 ± 337 ng/mL | Bioavailability ([3]; IV, 5 mg/kg OP (reference)): 100% | T1/2, on day 14 ([3]; IV, 5 mg/kg OP on day 1 and day 14, platinum, n=4): 15.8 ± 1.32 h | AUCinf, on day 14 [3, 4]: 1500 ± 196 ng·h/mL | AUClast, on day 14 [3, 4]: 775 ± 124 ng·h/mL | Bioavailability [3, 4]: 7.09 ± 1.14% | Cmax, on day 14 [3, 4]: 53 ± 14 ng/mL | T1/2, on day 14 [3, 4]: 23.7 ± 0.723 h | Tmax, on day 14 [3, 4]: 0.833 ± 0.289 h

COC(=O)[C@H](CCCCN)NC(=O)CC[C@@H](C)[C@H]1CC[C@H]2[C@@H]3CC[C@@H]4C[C@H](O)CC[C@]4(C)[C@H]3C[C@H](O)[C@]12C [DL, N^α-deoxycholyl-I-lysyl-methylester]
Cell viability ([1]; CT26, carrier amount matching maximum SIMVA concentration of 200 μg/mL): 77.1%
